Key:
Phytophthora infestans = assay: whole plant or invertebrate; assay type: in vivo; conditions: in Solanum lycopersicum, 144 h, read-out: percent disease control, TLB
Plasmopara viticola = assay type: in vivo; conditions: 7-8 days at 20° C.
Pythium ultimum = assay: Fungitoxicity against Pythium ultimum (inhibition of mycelial growth in liquid broth); assay type: cell-based; conditions: Globisporangium ultimum, 48 hours at 25° C. with shaking, asparagine-sucrose broth, read-out: % Inhibition of growth (increase in mycelial dry weight) as compared to controls
Method: Compounds were tested for fungitoxicity against Pythium ultimum according to the procedures set forth below.
Test compounds were dissolved in dimethylsulfoxide at 20 mg/ml and 0.1 ml was added to 19.9 ml of a liquid asparagine-sucrose broth, prepared according to the method described in Erwin, D. C., and Katznelson, K., Canadian Journal of Microbiology 7, 15 (1971), in 9 cm petri dishes to give a concentration of 100 ppm of the compound. Each plate was inoculated with a mycelial plug, 7 mm in diameter, taken from the growing edge of a culture of Pythium ultimum grown on potato dextrose agar. Two replicate plates were used for each treatment. After growth for 48 hours at 25° C. with shaking on a gyrotary shaker at 60 rpm, the increase in mycelial dry weight was determined. Fungitoxicity was recorded as percent inhibition of growth as compared to controls lacking the test compounds.

[1] = test system: Pseudoperonospora cubensis; conditions: in vivo

| Structure (SMILES) | pest or weed control at 300 ppm (Phytophthora infestans) [%] | percent disease control, GDM (Plasmopara viticola) [%] | inhibition at 100 ppm (Pythium ultimum) [%] | pest or weed control at 375 ppm (Phytophthora infestans) [%] | percent disease control, CDM [1] [%] | pest or weed control at 750 ppm (Phytophthora infestans) [%] |
| --- | --- | --- | --- | --- | --- | --- |
| CCC(C)(NC(=O)c1cc(Cl)c2ncoc2c1)C(=O)CCl (stereo not shown) [Compound 3] | 100 | 100 | 92 |  |  |  |
| CCC(C)(NC(=O)c1ccc2c(c1)CCO2)C(=O)CCl (stereo not shown) [Compound 9] | 100 | 0 | 91.6 |  |  |  |
| CCC(C)(NC(=O)c1cc(Cl)c2nc(C)oc2c1)C(=O)CCl (stereo not shown) [Compound 12] | 95 | 90 | 90.7 |  |  |  |
| CCC(C)(NC(=O)c1ccc2ncoc2c1)C(=O)CCl (stereo not shown) [Compound 1] |  |  | 89.4 | 100 |  |  |
| CCC(C)(NC(=O)c1ccc2c(c1)CCO2)C(=O)C(Cl)Cl (stereo not shown) [Compound 7] |  |  | 94.5 |  |  |  |
| CCC(C)(NC(=O)c1ccc2ocnc2c1)C(=O)CCl (stereo not shown) [Compound 8] | 90 | 100 | 93.7 |  |  |  |
| CCC(C)(NC(=O)c1ccc2[nH]ccc2c1)C(=O)CCl (stereo not shown) [Compound 6] | 100 | 100 | 88.6 |  |  |  |
| CCC(C)(NC(=O)c1ccc2nc(C)oc2c1)C(=O)C(Cl)Cl (stereo not shown) [Compound 14] |  |  | 94.5 |  |  |  |
| CCC(C)(NC(=O)c1ccc2ncsc2c1)C(=O)CCl (stereo not shown) [Compound 4] | 100 |  | 94.2 |  | 50 |  |
| CCC(C)(NC(=O)c1ccc2[nH]ccc2c1)C(=O)C(Cl)Cl (stereo not shown) [Compound 5] |  |  | 66.9 |  | 50 | 0 |

Reference: US5811427A (priority 1997, dated 1998)
